Laboratory results published in the supplement of paper PMC13380429.

How the values were obtained:
Conditions in all cases: 72 h
Vero E6 [1] = assay: cell viability relative to DMSO; higher = less toxic
U2OS [2] = assay: as above
HepG2 [3] = assay: as above
Caco-2 [4] = assay: as above
Calu-3 [5] = assay: as above
Vero E6 [6] = assay: relative viability EC50 (midpoint between 100% and the lowest measured viability); higher = less toxic
U2OS [7] = assay: as above
HepG2 [8] = assay: as above
Caco-2 [9] = assay: as above
Calu-3 [10] = assay: as above
Vero E6 [11] = assay: drug sensitivity score (DSS) for viability; higher = more toxic; extreme values may be limits of the assay
U2OS [12] = assay: as above
HepG2 [13] = assay: as above
Caco-2 [14] = assay: as above
Calu-3 [15] = assay: as above

| SMILES | cell viability (Vero E6 [1]; 1 nM) [%] | cell viability (Vero E6 [1]; 10 nM) [%] | cell viability (Vero E6 [1]; 100 nM) [%] | cell viability (Vero E6 [1]; 1000 nM) [%] | cell viability (Vero E6 [1]; 10000 nM) [%] | cell viability (U2OS [2]; 1 nM) [%] | cell viability (U2OS [2]; 10 nM) [%] | cell viability (U2OS [2]; 100 nM) [%] | cell viability (U2OS [2]; 1000 nM) [%] | cell viability (U2OS [2]; 10000 nM) [%] | cell viability (HepG2 [3]; 1 nM) [%] | cell viability (HepG2 [3]; 10 nM) [%] | cell viability (HepG2 [3]; 100 nM) [%] | cell viability (HepG2 [3]; 1000 nM) [%] | cell viability (HepG2 [3]; 10000 nM) [%] | cell viability (Caco-2 [4]; 1 nM) [%] | cell viability (Caco-2 [4]; 10 nM) [%] | cell viability (Caco-2 [4]; 100 nM) [%] | cell viability (Caco-2 [4]; 1000 nM) [%] | cell viability (Caco-2 [4]; 10000 nM) [%] | cell viability (Calu-3 [5]; 1 nM) [%] | cell viability (Calu-3 [5]; 10 nM) [%] | cell viability (Calu-3 [5]; 100 nM) [%] | cell viability (Calu-3 [5]; 1000 nM) [%] | cell viability (Calu-3 [5]; 10000 nM) [%] | relative viability EC50 (Vero E6 [6]) [µM] | relative viability EC50 (U2OS [7]) [µM] | relative viability EC50 (HepG2 [8]) [µM] | relative viability EC50 (Caco-2 [9]) [µM] | relative viability EC50 (Calu-3 [10]) [µM] | drug sensitivity score (Vero E6 [11]) | drug sensitivity score (U2OS [12]) | drug sensitivity score (HepG2 [13]) | drug sensitivity score (Caco-2 [14]) | drug sensitivity score (Calu-3 [15]) |
| --- | --- | --- | --- | --- | --- | --- | --- | --- | --- | --- | --- | --- | --- | --- | --- | --- | --- | --- | --- | --- | --- | --- | --- | --- | --- | --- | --- | --- | --- | --- | --- | --- | --- | --- | --- |
| C[C@]12CCC(=O)C[C@@H]1CC[C@@H]1[C@@H]2CC[C@]2(C)[C@@H](O)CC[C@@H]12 [Dihydrotestosterone] | 106 | 99.3 | 101 | 100 | 104 | 98.2 | 104 | 94.8 | 103 | 98.9 | 112 | 95.8 | 99.3 | 106 | 95.3 | 108 | 93.1 | 103 | 102 | 97.5 | 97.6 | 99.9 | 101 | 98.9 | 94.3 | > 10 | > 10 | > 10 | > 10 | > 10 | 0 | 0 | 0 | 0 | 0 |
| CC(=O)OCC(=O)[C@H]1CC[C@H]2[C@@H]3CC[C@H]4C[C@H](O)CC[C@]4(C)[C@H]3C(=O)C[C@]12C [alfadolone-acetate] | 106 | 104 | 98.3 | 104 | 97.3 | 105 | 97.7 | 98.7 | 103 | 100 | 98.7 | 101 | 109 | 104 | 102 | 99.9 | 102 | 102 | 101 | 100 | 99.9 | 101 | 99.8 | 111 | 91.3 | > 10 | > 10 | > 10 | > 10 | > 10 | 0 | 0 | 0 | 0 | 0 |
| CCOc1nc2cccc(C(=O)O)c2n1Cc1ccc(-c2ccccc2-c2nnn[nH]2)cc1 [candesartan] | 102 | 97.6 | 95.3 | 92.7 | 108 | 94.2 | 96.8 | 94.4 | 99.3 | 102 | 103 | 100 | 106 | 98 | 94.5 | 104 | 97.5 | 106 | 90.1 | 92.5 | 91.1 | 95.7 | 100 | 99.7 | 105 | > 10 | > 10 | > 10 | > 10 | > 10 | 0 | 0 | 0 | 0 | 0 |
